Data published in patent publication US20240092835A1, “NOVEL PEPTIDES CAPABLE OF ALTERING NK CELL ACTIVITY” (Massachusetts Institute of Technology, priority 2022, published 2024).
Where no end group is shown, it is not given here.

Key:
NKG2A−/NKG2C+ NK cells [1] = assay: NKG2A-/NKG2C+ NK cell activation with peptide and RMA-S cells expressing HLA-E; format: cell-based; conditions: RMA-S cells expressing HLA-E, NKG2A−/NKG2C+ NK cells
Summary of the method: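 RMA-S cells with low HLA-E expression were loaded with peptides and tested against NKG2A−/NKG2C+ NK cells, with two reference peptide sequences as controls. Activation read as percent cells positive for CD107a, IFNG, TNF and CCL3.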

NKG2A−/NKG2C− NK cells = assay: NK cell activation markers in control NKG2A-/NKG2C- NK cells incubated with peptide and K562 expressing HLA-E; format: cell-based, human
Summary of the method: (§1)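 Read-out: % NK cells positive for surface activation markers; a rise indicates activation, a fall indicates inhibition. Targets were K562 cells expressing HLA-E, loaded with human- or HCMV-proteome-derived peptides.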

CD94/NKG2C = CD94/NKG2C (Homo sapiens, UniProt P26717+Q13241); assay: Steady-state surface plasmon resonance of peptide-HLA-E complex with CD94/NKG2C; format: binding; conditions: for Binding of peptide-HLA-E complexes to CD94/NKG2C normalized to a theoretical Rmax: steady-state SPR
NKG2A−/NKG2C+ NK cells [2] = assay: NK cell activation markers in NKG2A-/NKG2C+ NK cells incubated with peptide and K562 expressing HLA-E (activation); format: cell-based, human; conditions: for effect on NKG2A−/NKG2C+ NK cell activation (in words): K562 expressing HLA-E, CD107a, IFNG, TNF, CCL3; for percentage of CCL3+ NK cells / percentage of CD107+ NK cells / percentage of IFNG+ NK cells / percentage of TNF+ NK cells: NKG2A-/NKG2C+ NK cells, K562/HLA-E
Summary of the method: as §1

HLA-E = target: T1, HLA-E (Homo sapiens, UniProt P13747); assay: HLA-E surface stabilization assay with RMA-S/HLA-E cells; format: cell-based; conditions: 30 μM peptide, 16 hours; for HLA-E surface expression stability (GeoMFI): anti-HLA-E antibody
T1 construct: expressed in transfected cells; host or cells: RMA-S/HLA-E cells (antigen processing-defective lymphoma cell line)
Experimental: HLA-E surface expression was assessed by measuring geometric mean fluorescence intensity (GeoMFI) in RMA-S cells following immunofluorescence staining with an anti-HLA-E antibody (Table 14). Increased GeoMFI was indicative of increased HLA-E surface expression stability following novel peptide exposures (FIG. 3).

T1 sequence (P13747 22-358): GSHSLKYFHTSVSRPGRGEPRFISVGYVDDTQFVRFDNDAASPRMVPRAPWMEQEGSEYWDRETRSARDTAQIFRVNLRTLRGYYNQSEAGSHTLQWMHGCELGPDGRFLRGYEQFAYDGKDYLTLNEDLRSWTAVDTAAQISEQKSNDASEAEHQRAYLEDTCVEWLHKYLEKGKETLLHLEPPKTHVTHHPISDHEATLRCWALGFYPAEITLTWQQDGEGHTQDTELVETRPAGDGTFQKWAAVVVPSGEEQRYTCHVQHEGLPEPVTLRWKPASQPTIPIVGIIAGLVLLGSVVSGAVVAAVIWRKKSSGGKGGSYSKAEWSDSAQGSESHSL
T1 sequence (P61769 21-119 partner): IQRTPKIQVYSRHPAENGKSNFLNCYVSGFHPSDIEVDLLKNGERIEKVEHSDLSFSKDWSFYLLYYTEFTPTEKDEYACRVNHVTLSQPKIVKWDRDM
Chain of CD94/NKG2C (P26717 94-231 limits assumed): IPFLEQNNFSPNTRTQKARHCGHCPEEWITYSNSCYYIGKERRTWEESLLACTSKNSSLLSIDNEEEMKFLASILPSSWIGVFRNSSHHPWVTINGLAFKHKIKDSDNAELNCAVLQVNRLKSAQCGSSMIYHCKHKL
Chain of CD94/NKG2C (Q13241 32-179 limits assumed): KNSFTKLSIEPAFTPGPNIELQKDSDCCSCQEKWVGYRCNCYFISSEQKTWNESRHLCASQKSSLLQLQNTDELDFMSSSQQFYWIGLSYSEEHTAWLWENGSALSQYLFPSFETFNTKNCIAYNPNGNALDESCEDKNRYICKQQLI

TAPARTMFL [human13, TAPARTMFL] was tested, and the “increase in CCL3+ NK cells (in words)” value (NKG2A−/NKG2C+ NK cells [1]) was “slight increases”, the “increase in CD107a+ NK cells (in words)” value (NKG2A−/NKG2C+ NK cells [1]) was “slight increases” and the “increase in IFNG+ NK cells (in words)” value (NKG2A−/NKG2C+ NK cells [1]) was “no increase”. For the same sequence, the “increase in TNF+ NK cells (in words)” value (NKG2A−/NKG2C+ NK cells [1]) was “no increase”, the “percentage CCL3+ NK cells” value (NKG2A−/NKG2C− NK cells; Trial 1) was 37.2% and the “percentage CD107+ NK cells” value (NKG2A−/NKG2C− NK cells; Trial 1) was 26.3%. The “percentage TNF+ NK cells” value (NKG2A−/NKG2C− NK cells; Trial 1) was 3.65%, the “percentage of IFNG+ NK cells” value (NKG2A−/NKG2C− NK cells; Trial 1) was 16.6% and the “percentage CCL3+ NK cells” value (NKG2A−/NKG2C− NK cells; Trial 2) was 65.4%. For the same sequence, the “percentage CD107+ NK cells” value (NKG2A−/NKG2C− NK cells; Trial 2) was 43%, the “percentage TNF+ NK cells” value (NKG2A−/NKG2C− NK cells; Trial 2) was 11.9% and the “percentage of IFNG+ NK cells” value (NKG2A−/NKG2C− NK cells; Trial 2) was 32.5%. The “percentage CCL3+ NK cells” value (NKG2A−/NKG2C− NK cells; Trial 3) was 56.2%, the “percentage CD107+ NK cells” value (NKG2A−/NKG2C− NK cells; Trial 3) was 56.4% and the “percentage TNF+ NK cells” value (NKG2A−/NKG2C− NK cells; Trial 3) was 23.2%. The “percentage of IFNG+ NK cells” value (NKG2A−/NKG2C− NK cells; Trial 3) was 49.4%, the “percentage CCL3+ NK cells” value (NKG2A−/NKG2C− NK cells; Trial 4) was 37.7% and the “percentage CD107+ NK cells” value (NKG2A−/NKG2C− NK cells; Trial 4) was 31.8%. The “percentage TNF+ NK cells” value (NKG2A−/NKG2C− NK cells; Trial 4) was 12.1%, the “percentage of IFNG+ NK cells” value (NKG2A−/NKG2C− NK cells; Trial 4) was 22.2% and the “percentage CCL3+ NK cells” value (NKG2A−/NKG2C− NK cells; Trial 5) was 30.1%. For the same sequence, the “percentage CD107+ NK cells” value (NKG2A−/NKG2C− NK cells; Trial 5) was 22.7%, the “percentage TNF+ NK cells” value (NKG2A−/NKG2C− NK cells; Trial 5) was 8.01% and the “percentage of IFNG+ NK cells” value (NKG2A−/NKG2C− NK cells; Trial 5) was 18.9%. The “percentage CCL3+ NK cells” value (NKG2A−/NKG2C− NK cells; Trial 6) was 27.4%, the “percentage CD107+ NK cells” value (NKG2A−/NKG2C− NK cells; Trial 6) was 21.1% and the “percentage TNF+ NK cells” value (NKG2A−/NKG2C− NK cells; Trial 6) was 3.64%. For the same sequence, the “percentage of IFNG+ NK cells” value (NKG2A−/NKG2C− NK cells; Trial 6) was 8.06%, the “binding of peptide-HLA-E complex to CD94/NKG2C normalized to a fitted Rmax” value (CD94/NKG2C; CD94/NKG2C concentration 0 μM) was 0.007 and the “binding of peptide-HLA-E complex to CD94/NKG2C normalized to a fitted Rmax” value (CD94/NKG2C; CD94/NKG2C concentration 0.1 μM) was 0.017. The “binding of peptide-HLA-E complex to CD94/NKG2C normalized to a fitted Rmax” value (CD94/NKG2C; CD94/NKG2C concentration 0.2 μM) was 0.023, the “binding of peptide-HLA-E complex to CD94/NKG2C normalized to a fitted Rmax” value (CD94/NKG2C; CD94/NKG2C concentration 0.4 μM) was 0.040 and the “binding of peptide-HLA-E complex to CD94/NKG2C normalized to a fitted Rmax” value (CD94/NKG2C; CD94/NKG2C concentration 0.8 μM) was 0.067. The “binding of peptide-HLA-E complex to CD94/NKG2C normalized to a fitted Rmax” value (CD94/NKG2C; CD94/NKG2C concentration 1.6 μM) was 0.117, the “binding of peptide-HLA-E complex to CD94/NKG2C normalized to a fitted Rmax” value (CD94/NKG2C; CD94/NKG2C concentration 3.2 μM) was 0.202 and the “binding of peptide-HLA-E complex to CD94/NKG2C normalized to a fitted Rmax” value (CD94/NKG2C; CD94/NKG2C concentration 6.4 μM) was 0.317. For the same sequence, the “binding of peptide-HLA-E complex to CD94/NKG2C normalized to a fitted Rmax” value (CD94/NKG2C; CD94/NKG2C concentration 12.8 μM) was 0.462, the “binding of peptide-HLA-E complex to CD94/NKG2C normalized to a fitted Rmax” value (CD94/NKG2C; CD94/NKG2C concentration 25.6 μM) was 0.613 and the “binding of peptide-HLA-E complex to CD94/NKG2C normalized to a fitted Rmax” value (CD94/NKG2C; CD94/NKG2C concentration 51.2 μM) was 0.746. For the same sequence, the “binding of peptide-HLA-E complex to CD94/NKG2C normalized to a fitted Rmax” value (CD94/NKG2C; CD94/NKG2C concentration 102.4 μM) was 0.904, the “Binding of peptide-HLA-E complexes to CD94/NKG2C normalized to a theoretical Rmax” value (CD94/NKG2C; CD94/NKG2C analyte concentration 0 μM) was 0.005 and the “Binding of peptide-HLA-E complexes to CD94/NKG2C normalized to a theoretical Rmax” value (CD94/NKG2C; CD94/NKG2C analyte concentration 0.1 μM) was 0.012. The “Binding of peptide-HLA-E complexes to CD94/NKG2C normalized to a theoretical Rmax” value (CD94/NKG2C; CD94/NKG2C analyte concentration 0.2 μM) was 0.017, the “Binding of peptide-HLA-E complexes to CD94/NKG2C normalized to a theoretical Rmax” value (CD94/NKG2C; CD94/NKG2C analyte concentration 0.4 μM) was 0.030 and the “Binding of peptide-HLA-E complexes to CD94/NKG2C normalized to a theoretical Rmax” value (CD94/NKG2C; CD94/NKG2C analyte concentration 0.8 μM) was 0.050. For the same sequence, the “Binding of peptide-HLA-E complexes to CD94/NKG2C normalized to a theoretical Rmax” value (CD94/NKG2C; CD94/NKG2C analyte concentration 1.6 μM) was 0.086, the “Binding of peptide-HLA-E complexes to CD94/NKG2C normalized to a theoretical Rmax” value (CD94/NKG2C; CD94/NKG2C analyte concentration 3.2 μM) was 0.149 and the “Binding of peptide-HLA-E complexes to CD94/NKG2C normalized to a theoretical Rmax” value (CD94/NKG2C; CD94/NKG2C analyte concentration 6.4 μM) was 0.234. For the same sequence, the “Binding of peptide-HLA-E complexes to CD94/NKG2C normalized to a theoretical Rmax” value (CD94/NKG2C; CD94/NKG2C analyte concentration 12.8 μM) was 0.342, the “Binding of peptide-HLA-E complexes to CD94/NKG2C normalized to a theoretical Rmax” value (CD94/NKG2C; CD94/NKG2C analyte concentration 25.6 μM) was 0.454 and the “Binding of peptide-HLA-E complexes to CD94/NKG2C normalized to a theoretical Rmax” value (CD94/NKG2C; CD94/NKG2C analyte concentration 51.2 μM) was 0.552. The “Binding of peptide-HLA-E complexes to CD94/NKG2C normalized to a theoretical Rmax” value (CD94/NKG2C; CD94/NKG2C analyte concentration 102.4 μM) was 0.669, the “effect on NKG2A−/NKG2C+ NK cell activation (in words)” value (NKG2A−/NKG2C+ NK cells [2]; listed as SEQ ID NO. 5) was “activate” and the “effect on NKG2A−/NKG2C+ NK cell activation (in words)” value (NKG2A−/NKG2C+ NK cells [2]; listed as h13) was “activated”. For the same sequence, the “percentage of CCL3+ NK cells” value (NKG2A−/NKG2C+ NK cells [2]; Trial 1) was 56.9%, the “percentage of CD107+ NK cells” value (NKG2A−/NKG2C+ NK cells [2]; Trial 1) was 38.3% and the “percentage of IFNG+ NK cells” value (NKG2A−/NKG2C+ NK cells [2]; Trial 1) was 18.2%. For the same sequence, the “percentage of TNF+ NK cells” value (NKG2A−/NKG2C+ NK cells [2]; Trial 1) was 9.29%, the “percentage of CCL3+ NK cells” value (NKG2A−/NKG2C+ NK cells [2]; Trial 2) was 74.9% and the “percentage of CD107+ NK cells” value (NKG2A−/NKG2C+ NK cells [2]; Trial 2) was 57%. For the same sequence, the “percentage of IFNG+ NK cells” value (NKG2A−/NKG2C+ NK cells [2]; Trial 2) was 28.7%, the “percentage of TNF+ NK cells” value (NKG2A−/NKG2C+ NK cells [2]; Trial 2) was 20.7% and the “percentage of CCL3+ NK cells” value (NKG2A−/NKG2C+ NK cells [2]; Trial 3) was 72.4%. The “percentage of CD107+ NK cells” value (NKG2A−/NKG2C+ NK cells [2]; Trial 3) was 71.2%, the “percentage of IFNG+ NK cells” value (NKG2A−/NKG2C+ NK cells [2]; Trial 3) was 49.2% and the “percentage of TNF+ NK cells” value (NKG2A−/NKG2C+ NK cells [2]; Trial 3) was 37.9%. For the same sequence, the “percentage of CCL3+ NK cells” value (NKG2A−/NKG2C+ NK cells [2]; Trial 4) was 60.7%, the “percentage of CD107+ NK cells” value (NKG2A−/NKG2C+ NK cells [2]; Trial 4) was 57.1% and the “percentage of IFNG+ NK cells” value (NKG2A−/NKG2C+ NK cells [2]; Trial 4) was 40.8%. The “percentage of TNF+ NK cells” value (NKG2A−/NKG2C+ NK cells [2]; Trial 4) was 33%, the “percentage of CCL3+ NK cells” value (NKG2A−/NKG2C+ NK cells [2]; Trial 5) was 61.9% and the “percentage of CD107+ NK cells” value (NKG2A−/NKG2C+ NK cells [2]; Trial 5) was 56.2%. The “percentage of IFNG+ NK cells” value (NKG2A−/NKG2C+ NK cells [2]; Trial 5) was 34.2%, the “percentage of TNF+ NK cells” value (NKG2A−/NKG2C+ NK cells [2]; Trial 5) was 27.4% and the “percentage of CCL3+ NK cells” value (NKG2A−/NKG2C+ NK cells [2]; Trial 6) was 40.7%. For the same sequence, the “percentage of CD107+ NK cells” value (NKG2A−/NKG2C+ NK cells [2]; Trial 6) was 29.1%, the “percentage of IFNG+ NK cells” value (NKG2A−/NKG2C+ NK cells [2]; Trial 6) was 14.3% and the “percentage of TNF+ NK cells” value (NKG2A−/NKG2C+ NK cells [2]; Trial 6) was 8.92%. For the same sequence, the “HLA-E surface expression stabilization strength (in words)” value (HLA-E) was “lower”, the “HLA-E surface expression stability (GeoMFI)” value (HLA-E; Trial 1) was 851 GeoMFI and the “HLA-E surface expression stability (GeoMFI)” value (HLA-E; Trial 2) was 887 GeoMFI. The “HLA-E surface expression stability (GeoMFI)” value (HLA-E; Trial 3) was 673 GeoMFI, the “HLA-E surface expression stability (GeoMFI)” value (HLA-E; Trial 4) was 1187 GeoMFI and the “HLA-E surface expression stabilization strength, approximate GeoMFI” value (HLA-E; approximate value) was “approximately 1×10^3 GeoMFI”.
